Reference: BindingDB's records for doi:10.1021/jm900431g (Boehringer Ingelheim Pharma, 2009)

Molecular target: Vascular endothelial growth factor receptor 2 (Homo sapiens, UniProt P35968)
Assay: Inhibition of human VEGFR2 expressed in Sf9 cells

Sequence of Vascular endothelial growth factor receptor 2 (P35968 whole entry): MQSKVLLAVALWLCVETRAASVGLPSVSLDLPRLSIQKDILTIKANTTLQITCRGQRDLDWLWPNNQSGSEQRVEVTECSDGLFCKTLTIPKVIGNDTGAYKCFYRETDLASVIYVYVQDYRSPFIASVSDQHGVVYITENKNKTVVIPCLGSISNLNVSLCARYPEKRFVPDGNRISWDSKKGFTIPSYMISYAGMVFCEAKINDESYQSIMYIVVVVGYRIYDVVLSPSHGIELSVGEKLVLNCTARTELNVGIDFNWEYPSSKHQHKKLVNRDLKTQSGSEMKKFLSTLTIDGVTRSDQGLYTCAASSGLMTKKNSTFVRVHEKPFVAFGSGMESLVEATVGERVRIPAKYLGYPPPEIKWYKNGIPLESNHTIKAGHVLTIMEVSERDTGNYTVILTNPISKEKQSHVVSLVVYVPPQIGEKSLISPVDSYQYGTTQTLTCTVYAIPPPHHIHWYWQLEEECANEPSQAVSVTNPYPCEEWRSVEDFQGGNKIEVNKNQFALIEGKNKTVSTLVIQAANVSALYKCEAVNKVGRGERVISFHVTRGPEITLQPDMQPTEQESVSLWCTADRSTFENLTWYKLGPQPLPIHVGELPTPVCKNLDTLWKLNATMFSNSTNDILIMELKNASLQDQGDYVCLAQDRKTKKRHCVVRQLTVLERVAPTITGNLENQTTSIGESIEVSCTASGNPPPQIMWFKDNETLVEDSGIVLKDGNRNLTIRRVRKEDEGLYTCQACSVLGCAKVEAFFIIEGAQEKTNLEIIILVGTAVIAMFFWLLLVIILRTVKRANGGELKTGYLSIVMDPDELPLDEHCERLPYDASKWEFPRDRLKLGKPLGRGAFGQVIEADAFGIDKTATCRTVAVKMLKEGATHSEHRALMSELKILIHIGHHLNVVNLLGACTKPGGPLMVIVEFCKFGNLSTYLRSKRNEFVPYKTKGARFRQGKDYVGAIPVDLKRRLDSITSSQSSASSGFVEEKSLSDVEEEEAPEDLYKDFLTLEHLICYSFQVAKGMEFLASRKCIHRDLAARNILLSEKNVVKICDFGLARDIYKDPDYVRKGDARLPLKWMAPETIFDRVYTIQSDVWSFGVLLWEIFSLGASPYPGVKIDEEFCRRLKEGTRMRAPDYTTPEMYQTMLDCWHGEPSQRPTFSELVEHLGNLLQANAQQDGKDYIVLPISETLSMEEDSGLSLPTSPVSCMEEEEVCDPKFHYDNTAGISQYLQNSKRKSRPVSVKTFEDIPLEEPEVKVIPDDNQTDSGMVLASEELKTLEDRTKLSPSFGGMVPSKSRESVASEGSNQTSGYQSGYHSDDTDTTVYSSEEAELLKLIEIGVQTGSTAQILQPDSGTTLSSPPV

| Structure (SMILES) | IC50 |
| --- | --- |
| N#Cc1ccc2c(c1)NC(=O)C2C(=Nc1ccc(CN2CCCCC2)cc1)c1ccccc1 (stereo not drawn) [(Z)-6-Cyano-3-[phenyl-(4-piperidin-1-ylmethyl-phenylamino)-methylene]-indolin-2-one] | 0.248 µM |
| COC(=O)c1ccc2c(c1)NC(=O)C2C(=NC1CCC(NC(=O)CN(C)C)CC1)c1ccccc1 (stereo not drawn) [(Z)-methyl 3-((4-(2-(dimethylamino)acetamido)cyclohexylamino)(phenyl)methylene)-2-oxoindoline-6-carboxylate] | > 10 µM |
| COC(=O)c1ccc2c(c1)NC(=O)C2C(=NC1CCN(C)CC1)c1ccccc1 (stereo not drawn) [(Z)-3-[(1-Methylpiperidin-4-ylamino)-phenyl-methylene]-2-oxo-2,3-dihydro-1H-indole-6-carboxylic Acid Methyl Ester] | > 10 µM |
